Experimental data from US9907797B2, “Combination therapies for overcoming resistance to mitotic agents during chemotherapy” (EMORY UNIVERSITY, priority 2014, dated 2018).
Peptide text beside a SMILES is read from it. * marks the point of attachment. Cbz = O=C(OCc1ccccc1)*

Key:
Assay type in all cases: cell-based
CHFR = assay: wt-CHFR and CHFR-PBZ* protein levels in transfected Calu-6 cells
Description: To determine if disruption of the CHFR-PARP1 interaction forces CHFR degradation by auto-ubiquitination and subsequent proteasomal degradation, wild-type and the CHFR-PBZ mutant were expressed in the presence and absence of the proteasome inhibitor MG-132 (FIG. 1H) or after the additional deletion of the RING domain (FIG. 1I) in Calu-6 cells.

[1] = tested on: A549, EKVX, H596, H522, Hop-62, H460 and H2023; assay: Cytotoxicity assays with docetaxel and ABT-888 in seven lung cancer cell lines
Procedure: Hypothesizing that PARP-inhibition could induce synergistic cytotoxicity in CHFR expressing lung cancer cell lines, cytotoxicity assays were performed in seven lung cancer cell lines (A549, EKVX, H596, H522, Hop-62, H460 and H2023) using docetaxel and the PARP-inhibitor ABT-888 either alone or in combination.

PARP1-CHFR interaction = target: T1, PARP1-CHFR interaction (Homo sapiens, UniProt Q96EP1); assay: Glutathione affinity pull-down of GST tagged PARP1 with CHFR in HEK293 cells; settings: 10 uM, 16 hours
T1 construct: expressed in transfected cells; CHFR endogenous
T1 sequence (Q96EP1 1-664): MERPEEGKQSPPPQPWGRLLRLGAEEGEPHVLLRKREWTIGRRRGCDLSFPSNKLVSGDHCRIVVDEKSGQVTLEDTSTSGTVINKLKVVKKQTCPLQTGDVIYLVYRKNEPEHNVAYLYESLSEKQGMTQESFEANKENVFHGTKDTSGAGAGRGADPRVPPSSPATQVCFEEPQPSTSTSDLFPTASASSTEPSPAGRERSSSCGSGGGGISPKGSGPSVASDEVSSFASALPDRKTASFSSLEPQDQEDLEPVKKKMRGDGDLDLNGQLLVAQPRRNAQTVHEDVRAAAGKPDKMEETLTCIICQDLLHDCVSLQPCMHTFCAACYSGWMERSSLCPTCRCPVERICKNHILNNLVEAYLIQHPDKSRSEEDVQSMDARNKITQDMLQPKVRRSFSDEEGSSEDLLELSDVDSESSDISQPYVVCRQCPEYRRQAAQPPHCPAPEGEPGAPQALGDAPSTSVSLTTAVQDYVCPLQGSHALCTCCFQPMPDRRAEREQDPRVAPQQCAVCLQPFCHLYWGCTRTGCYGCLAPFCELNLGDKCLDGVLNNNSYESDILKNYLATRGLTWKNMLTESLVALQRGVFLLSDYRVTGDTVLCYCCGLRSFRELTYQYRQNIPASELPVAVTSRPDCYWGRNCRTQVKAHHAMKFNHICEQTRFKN
Procedure: In an attempt to generate possible lead compounds for the pharmacologic inhibition of the CHFR-PARP1 interaction, a high throughput computational screen of 5,256,508 chemical structures in the MCULE database of purchasable compounds using the AutoDockVina algorithm against the published crystal structure of the CHFR-PBZ domain was performed. The 10 most promising ‘hits’ based on Autodock Vina docking scores (<−9.7) were selected for further characterization. Commercially available compounds were tested for their impact on nuclear CHFR levels (FIG. 3A). Several compounds, including ‘A2’, ‘A3’, ‘A4’ and ‘A6’ decreased CHFR levels assayed by western blotting of whole cell extracts. The impact of the above referenced compounds on the PARP1/CHFR interaction were evaluated. HEK293 cells were transfected with GST tagged PARP1 and the interaction with CHFR determined in pull down assays for those 4 compounds. […] In contrast to treatment with ABT-888, ‘A3’ completely disrupted the interaction between GST-tagged PARP-1 and CHFR (FIG. 3B). […] Since it is possible that the co-immunoprecipitation between PARP-1 and CHFR after ‘A3’ treatment was negative due to the fact that CHFR was degraded, the experiment was repeated after transfection with the Ring-domain deleted ΔR-CHFR construct, which maintained both stable CHFR and PARP1 levels even after treatment with ‘A3’. […]

A549 cells = assay: XTT assays with docetaxel in A549 cells stably transfected with shRNAs
Procedure: (§1) The functional significance of the interaction between CHFR and PARP1 in antephase checkpoint control and taxane sensitivity was evaluated. HEK293 cells were transfected with a GST-tagged PARP1, synchronized with aphidocholin, and the interaction between GST-tagged PARP1 and CHFR was analyzed at various stages of the cell cycle (FIG. 2A, 2B). […] To determine the effect on taxane sensitivity, XTT assays were performed in A549 cells stably transfected with either shRNAs specifically targeting CHFR or PARP1 or control shRNAs (scrambled or luciferase targeting respectively).

CHFR-PARP1 interaction = assay: Interaction between GST-tagged PARP1 and CHFR in synchronized cells; settings: microtubular damage induced with docetaxel, G2/M phase
Procedure: as §1

Calu-6 NSCLC cells = assay: XTT assay with docetaxel in transfected Calu-6 cells; settings: docetaxel 72 hours, Calu-6 with wt-CHFR vs empty vector and CHFR-PBZ*, p<0.05
Procedure: The effect of Docetaxel after 72 hours was established by XTT assay.
In Hela cells, full length, but not PBZ-mutant CHFR has similar cell cycle effects. To determine the functional relevance of the PBZ domain on taxane resistance in NSCLC CHFR deficient CALU-6 cells were transfected with either with full-length CHFR (pDEST40-wt-CHFR) or PBZ mutant CHFR (pDEST40-CHFR-PBZ*).

`C[C@]1(c2nc3c(C(N)=O)cccc3[nH]2)CCCN1` [ABT-888] was tested, and the CHFR protein levels (CHFR; Calu-6 cells, wt-CHFR or CHFR-PBZ*) was “did not result in altered CHFR protein levels”, the “cytostasis, docetaxel combined with ABT-888” value ([1]; ABT-888 20 uM) was “did not lead to enhanced cytostasis” and the “synergy of docetaxel and ABT-888, cytotoxicity” value ([1]; seven lung cancer cell lines, alone or in combination) was “Synergy was not observed in any of the cell lines”. The “interaction between PARP1 and CHFR” value (PARP1-CHFR interaction) was “nor did it disrupt the interaction between CHFR and PARP-1”.

`CC(C)C[C@@H](C=O)NC(=O)[C@H](CC(C)C)NC(=O)[C@H](CC(C)C)NC(=O)OCc1ccccc1` [MG-132] (Cbz-Leu-Leu-Leu-aldehyde) was tested, and the “CHFR-PBZ* protein levels” value (CHFR; Calu-6 cells stably transfected with CHFR-PBZ*, proteasomal inhibition) was “increases CHFR-PBZ* protein levels”.

`CC(=O)O[C@@]12CO[C@@H]1C[C@H](O)[C@@]1(C)C(=O)[C@H](O)C3=C(C)[C@@H](OC(=O)[C@H](O)[C@@H](NC(=O)OC(C)(C)C)c4ccccc4)C[C@@](O)([C@@H](OC(=O)c4ccccc4)[C@H]21)C3(C)C` [docetaxel] was tested, and the “sensitivity to docetaxel (XTT)” value (A549 cells; CHFR-deficient A549 cells relative to scrambled control) was “increased sensitivity to docetaxel”, the “sensitivity to docetaxel (XTT)” value (A549 cells; PARP1 deficient A549 cells relative to control shRNA) was “also showed increased sensitivity to docetaxel” and the “interaction between GST-tagged PARP1 and CHFR” value (CHFR-PARP1 interaction) was “further enhances this interaction”. For the same compound, the “taxane resistance (XTT)” value (Calu-6 NSCLC cells) was “Stable transfection of wt-CHFR increases taxane resistance”.
